Test results reported in PMC6032053, “Design, Synthesis, Cytotoxic Evaluation and Molecular Docking of New Fluoroquinazolinones as Potent Anticancer Agents with Dual EGFR Kinase and Tubulin Polymerization Inhibitory Effects” (International Journal of Molecular Sciences, 2018).
Entries after “also recorded” stand apart in the source; their conditions may differ. Values belong to the molecule of their own block, whether it stands above or below them.

Assays:
EGFR-TK = EGFR-TK (Homo sapiens, UniProt P00533); assay: EGFR inhibition assay (HT Scan EGFR kinase assay kit)
Sequence of EGFR-TK (P00533 25-1210): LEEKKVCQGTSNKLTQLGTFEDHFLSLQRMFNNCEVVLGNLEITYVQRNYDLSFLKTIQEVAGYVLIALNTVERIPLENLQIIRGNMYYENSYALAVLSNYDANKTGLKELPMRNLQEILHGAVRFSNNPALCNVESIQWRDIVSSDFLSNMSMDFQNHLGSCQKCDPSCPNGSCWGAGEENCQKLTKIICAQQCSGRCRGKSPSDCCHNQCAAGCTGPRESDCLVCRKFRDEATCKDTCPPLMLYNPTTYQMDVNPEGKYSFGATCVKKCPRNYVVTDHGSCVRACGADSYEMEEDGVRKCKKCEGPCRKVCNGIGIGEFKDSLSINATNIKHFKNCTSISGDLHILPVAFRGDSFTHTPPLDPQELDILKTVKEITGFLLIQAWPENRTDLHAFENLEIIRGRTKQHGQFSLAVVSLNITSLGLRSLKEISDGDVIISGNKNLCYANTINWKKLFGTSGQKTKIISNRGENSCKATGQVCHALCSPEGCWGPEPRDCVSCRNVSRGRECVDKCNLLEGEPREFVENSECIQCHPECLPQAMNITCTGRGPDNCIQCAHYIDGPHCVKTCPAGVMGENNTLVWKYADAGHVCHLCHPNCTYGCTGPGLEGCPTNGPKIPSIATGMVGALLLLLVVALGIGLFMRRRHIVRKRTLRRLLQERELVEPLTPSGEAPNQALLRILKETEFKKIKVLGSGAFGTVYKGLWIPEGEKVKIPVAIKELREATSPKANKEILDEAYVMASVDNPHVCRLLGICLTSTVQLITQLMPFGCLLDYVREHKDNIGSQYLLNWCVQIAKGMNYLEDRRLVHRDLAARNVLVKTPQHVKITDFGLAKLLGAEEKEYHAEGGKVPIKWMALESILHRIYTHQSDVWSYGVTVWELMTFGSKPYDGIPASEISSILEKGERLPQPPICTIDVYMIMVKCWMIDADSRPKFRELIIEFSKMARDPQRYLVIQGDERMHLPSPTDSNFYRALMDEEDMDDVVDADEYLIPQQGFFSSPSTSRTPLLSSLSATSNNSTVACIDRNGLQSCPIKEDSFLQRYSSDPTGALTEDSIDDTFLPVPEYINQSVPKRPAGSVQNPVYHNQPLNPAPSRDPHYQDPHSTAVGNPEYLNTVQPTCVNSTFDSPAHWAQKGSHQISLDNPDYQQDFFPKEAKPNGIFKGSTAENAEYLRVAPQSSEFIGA
Method: EGFR kinase activity was measured by HT Scan EGFR kinase assay kits (Cell Signaling Technology, Danvers, MA, USA). The experiments were performed following the manufacturer’s directions. […] Strapavidin-coated 96-well plates were used to take phosphorylated substrate. Anti-phosphotyrosine and europium-labeled secondary antibodies (DELFIA, Perkin-Elmer, Akron, OH, USA) were used to monitor the level of phosphorylation.

MCF-7 = assay: In vitro cytotoxic screening (MTT assay), MCF-7; format: cell-based, human; details: for IC50: Homo sapiens, MCF7, MTT assay, 24 h, MCF-7 cell line; for IC50 / Selectivity index S2: mean ± SD; for Cell line selectivity: S1 > S2: more selective to MDA-MBA-231, S2 > S1: more selective to MCF-7; for Selectivity index S2: S2 = IC50 (MDA-MBA-231)/IC50 (MCF-7)
Method: (§1) Cell lines were obtained from American Type Culture Collection, cells were cultured using DMEM (Invitrogen Life Technologies, Waltham, MA, USA) supplemented with 10% FBS (Hyclone, Logan, UT, USA), 10 µg/mL of insulin (Sigma, St. Louis, MO, USA), and 1% penicillin-streptomycin. […] At the end of the incubation, the cells were harvested and washed with PBS. 20 µL of MTT was added to each well and incubated for 2 h before 200 µL DMSO was added. The absorbance was measured on an ELISA reader (Multiskan EX, Lab systems, Waltham, MA, USA) at wavelength of 570 nm.
(§2) All assays were performed in triplicate. The results were expressed as mean ± SD (standard deviation) using Student’s t test.

MDA-MBA-231 = assay: In vitro cytotoxic screening (MTT assay), MDA-MBA-231; format: cell-based, human; details: mean ± SD; for IC50: 24 h, MTT assay, MDA-MBA-231 cell line; for Selectivity index S1: S1 = IC50 (MCF-7)/IC50 (MDA-MBA-231)
Method: as §1, §2

SMILES: O=C1Nc2ccccc2/C1=N\n1c(-c2ccc(F)cc2)nc2ccc(F)cc2c1=O [Compound 6, 3-(3-Iminoindolin-2-one)-6-fluoro-2-(4-flurophenyl)quinazoline-4(3H)-one]
IC50 (EGFR-TK): 75.2 ± 0.08 nM
IC50 (MCF-7): 350 ± 10 nM
Cell line selectivity (MCF-7): more selective to MCF-7 than MDA-MBA-231; also recorded: MCF-7 selective
Selectivity index S2 (MCF-7): 3.94 ± 0.26
IC50 (MDA-MBA-231; Homo sapiens): 1380 ± 140 nM
Selectivity index S1 (MDA-MBA-231): 0.25 ± 0.06
melting point: 223 to 225 °C

SMILES: O=c1c2cc(F)ccc2nc(-c2ccc(F)cc2)n1N=Cc1ccco1 [Compound 7, 3-((Furan-2-yl)methyleneamino)-6-fluoro-2-(4-fluorophenyl)quinazolin-4(3H)-one]
IC50 (MCF-7): 1060 ± 30 nM
Cell line selectivity (MCF-7): more selective to MDA-MBA-231 than MCF-7; also recorded: MDA-MBA-231 selective
Selectivity index S2 (MCF-7): 0.89 ± 0.18
IC50 (MDA-MBA-231; Homo sapiens): 940 ± 70 nM
Selectivity index S1 (MDA-MBA-231): 1.13 ± 0.09
melting point: 228 to 230 °C

SMILES: O=c1c2cc(F)ccc2nc(-c2ccc(F)cc2)n1N=CC=Cc1ccccc1 [Compound 8, 3-(3-Phenylallylideneamino)-6-fluoro-2-(4-fluorophenyl)quinazolin-4(3H)-one]
IC50 (MCF-7): 36600 ± 1810 nM
Cell line selectivity (MCF-7): more selective to MDA-MBA-231 than MCF-7; also recorded: MDA-MBA-231 selective
Selectivity index S2 (MCF-7): 0.59 ± 0.02
IC50 (MDA-MBA-231; Homo sapiens): 21600 ± 1400 nM
Selectivity index S1 (MDA-MBA-231): 1.69 ± 0.15
melting point: 220 to 222 °C

SMILES: O=c1c2cc(F)ccc2nc(-c2ccc(F)cc2)n1N=Cc1ccccc1 [Compound 10a, 3-(Benzylideneamino)-6-fluoro-2-(4-fluorophenyl)quinazolin-4(3H)-one]
IC50 (MCF-7): 950 ± 10 nM
Cell line selectivity (MCF-7): more selective to MCF-7 than MDA-MBA-231; also recorded: MCF-7 selective
Selectivity index S2 (MCF-7): 2.61 ± 0.09
IC50 (MDA-MBA-231; Homo sapiens): 2480 ± 170 nM
Selectivity index S1 (MDA-MBA-231): 0.39 ± 0.01
melting point: 218 to 220 °C

SMILES: COc1ccc(C=Nn2c(-c3ccc(F)cc3)nc3ccc(F)cc3c2=O)cc1 [Compound 10c, 3-(4-Methoxybenzylideneamino)-6-fluoro-2-(4-fluorophenyl)quinazolin-4(3H)-one]
IC50 (MCF-7): 10400 ± 1140 nM
Cell line selectivity (MCF-7): more selective to MDA-MBA-231 than MCF-7; also recorded: MDA-MBA-231 selective
Selectivity index S2 (MCF-7): 0.10 ± 0.13
IC50 (MDA-MBA-231; Homo sapiens): 1090 ± 10 nM
Selectivity index S1 (MDA-MBA-231): 9.57 ± 0.11
melting point: 228 to 230 °C

SMILES: O=c1c2cc(F)ccc2nc(-c2ccc(F)cc2)n1N=Cc1ccc(F)cc1 [Compound 10d, 3-(4-Fluorobenzylideneamino)-6-fluoro-2-(4-fluorophenyl)quinazolin-4(3H)-one]
IC50 (MCF-7): 890 ± 20 nM
Cell line selectivity (MCF-7): more selective to MDA-MBA-231 than MCF-7; also recorded: MDA-MBA-231 selective
Selectivity index S2 (MCF-7): 0.43 ± 0.09
IC50 (MDA-MBA-231; Homo sapiens): 382 ± 10 nM
IC50 (MDA-MBA-231): 380 ± 10 nM
Selectivity index S1 (MDA-MBA-231): 2.34 ± 0.05
melting point: 232 to 234 °C

SMILES: O=c1c2cc(F)ccc2nc(-c2ccc(F)cc2)n1N=Cc1ccc([N+](=O)[O-])cc1 [Compound 10e, 3-(4-Nitrobenzylideneamino)-6-fluoro-2-(4-fluorophenyl)quinazolin-4(3H)-one]
IC50 (EGFR-TK): 170.08 ± 0.02 nM
IC50 (MCF-7): 2610 ± 140 nM
Cell line selectivity (MCF-7): more selective to MDA-MBA-231 than MCF-7; also recorded: MDA-MBA-231 selective
Selectivity index S2 (MCF-7): 0.11 ± 0.17
Selectivity index S1 (MDA-MBA-231): 9.32 ± 0.08
melting point: 235 to 237 °C

More lines, main results first:

melting point: 231 to 233 °C
SMILES: Cc1ccc(C=Nn2c(-c3ccc(F)cc3)nc3ccc(F)cc3c2=O)cc1 [Compound 10b, 3-(4-Methylbenzylideneamino)-6-fluoro-2-(4-fluorophenyl)quinazoline-4(3H)-one]
IC50 (MCF-7): 5070 ± 330 nM
Cell line selectivity (MCF-7): more selective to MDA-MBA-231 than MCF-7; also recorded: MDA-MBA-231 selective
Selectivity index S2 (MCF-7): 0.61 ± 0.06
IC50 (MDA-MBA-231; Homo sapiens): 3090 ± 80 nM
Selectivity index S1 (MDA-MBA-231): 1.64 ± 0.21

melting point: 224 to 226 °C
SMILES: O=c1c2cc(F)ccc2nc(-c2ccc(F)cc2)n1N=Cc1ccc(Cl)cc1 [Compound 10f, 3-(4-Chlorobenzylideneamino)-6-fluoro-2-(4-fluorophenyl)quinazolin-4(3H)-one]
IC50 (MCF-7): 710 ± 10 nM
Cell line selectivity (MCF-7): more selective to MCF-7 than MDA-MBA-231; also recorded: MCF-7 selective
Selectivity index S2 (MCF-7): 5.29 ± 0.31
IC50 (MDA-MBA-231; Homo sapiens): 3760 ± 220 nM
Selectivity index S1 (MDA-MBA-231): 9.57 ± 0.22

melting point: 229 to 231 °C
SMILES: O=c1c2cc(F)ccc2nc(-c2ccc(F)cc2)n1N=Cc1ccc(O)cc1 [Compound 10g, 3-(4-Hydroxybenzylideneamino)-6-fluoro-2-(4-fluorophenyl) quinazolin-4(3H)-one]
IC50 (MCF-7): 1320 ± 80 nM
Cell line selectivity (MCF-7): more selective to MCF-7 than MDA-MBA-231; also recorded: MCF-7 selective
Selectivity index S2 (MCF-7): 1.92 ± 0.05
IC50 (MDA-MBA-231; Homo sapiens): 2540 ± 230 nM
Selectivity index S1 (MDA-MBA-231): 0.52 ± 0.07
